Literature values, collected in patent US20100063004A1, “TOPICAL PHARMACEUTICAL COMPOSITION” (priority 2006, published 2010).

Columns and labels:
[1] = tested on: herpes labialis (HSV-1); details: 10% n-docosanol suspended in an aqueous system containing a non-ionic surfactant and a carrier; humans with herpes labialis (HSV-1)
[2] = tested on: enlargement of the prostate gland; details: taken orally
[3] = tested on: lipid enveloped viruses such as herpes

In the case of `CCCCCCCCCCCCCCCCCCCCCCO` [n-docosanol], the solubility in water is given as “insoluble”, the “mean healing time of lesions” value [1] is given as “shortened” and the “therapeutic effect in enlargement of the prostate gland” value [2] is given as “therapeutically effective”. The “activity in cell cultures against lipid enveloped viruses” value [3] was “broad activity”.
